In the experiment the target is SARS-CoV-2 M^pro protease (Severe acute respiratory syndrome coronavirus 2 (2019-nCoV) (SARS-CoV-2), UniProt P0DTD1). The experiment can be described thus: biochemical. Particulars: M^pro 75 nM, substrate 10 μM. It is filed as biochemical.

Structures are written as SMILES.

`O=C1NC2(CC(c3ccccc3Br)C2)C(=O)N1c1cncc2ccccc12` (single isomer, unassigned) [Compound 16, 2-(2-bromophenyl)-7-(isoquinolin-4-yl)-5,7-diazaspiro[3.4]octane-6,8-dione]: it took 127 nM to reach half-maximal inhibition (Tables 5B-5E) (IC50).
Take `O=C1NC2(CC(c3ccccc3Br)C2)C(=O)N1c1cncc2ccccc12` (single isomer, unassigned) [Compound 17, 2-(2-bromophenyl)-7-(isoquinolin-4-yl)-5,7-diazaspiro[3.4]octane-6,8-dione]: for the setting “Tables 5B-5E”, it took 79 nM to reach half-maximal inhibition (IC50).
In the case of `O=C1NC2(CC(c3c(Cl)cccc3Cl)C2)C(=O)N1c1cncc2ccccc12` (single isomer, unassigned) [Compound 28, 2-(2,6-dichlorophenyl)-7-(isoquinolin-4-yl)-5,7-diazaspiro[3.4]octane-6,8-dione], half-maximal inhibition (Tables 5B-5E) (IC50) was put at 291 nM.
Still for that read-out and setting: in the case of `O=C1NC2(CC(c3c(Cl)cccc3Cl)C2)C(=O)N1c1cncc2ccccc12` (single isomer, unassigned) [Compound 29, 2-(2,6-dichlorophenyl)-7-(isoquinolin-4-yl)-5,7-diazaspiro[3.4]octane-6,8-dione] it was 165 nM.
Consider `O=C1NC2(CC(c3cccc(F)c3Cl)C2)C(=O)N1c1cncc2ccccc12` (single isomer, unassigned) [Compound 30, 2-(2-chloro-3-fluorophenyl)-7-(isoquinolin-4-yl)-5,7-diazaspiro[3.4]octane-6,8-dione], for which, where the note is “Tables 5B-5E”, the IC50 is 372 nM.
Same read-out and setting: in the case of `O=C1NC2(CC(c3cccc(F)c3Cl)C2)C(=O)N1c1cncc2ccccc12` (single isomer, unassigned) [Compound 31, 2-(2-chloro-3-fluorophenyl)-7-(isoquinolin-4-yl)-5,7-diazaspiro[3.4]octane-6,8-dione] it was 150 nM; in that of `O=C1NC2(CC(c3cc(F)ccc3Cl)C2)C(=O)N1c1cncc2ccccc12` (single isomer, unassigned) [Compound 34, 2-(2-chloro-5-fluorophenyl)-7-(isoquinolin-4-yl)-5,7-diazaspiro[3.4]octane-6,8-dione], 475 nM; in that of `O=C1NC2(CC(c3cc(F)ccc3Cl)C2)C(=O)N1c1cncc2ccccc12` (single isomer, unassigned) [Compound 35, 2-(2-chloro-5-fluorophenyl)-7-(isoquinolin-4-yl)-5,7-diazaspiro[3.4]octane-6,8-dione], 82 nM.
With `O=C1NC2(CC(c3c(F)cccc3Cl)C2)C(=O)N1c1cncc2ccccc12` (single isomer, unassigned) [Compound 36, 2-(2-chloro-6-fluorophenyl)-7-(isoquinolin-4-yl)-5,7-diazaspiro[3.4]octane-6,8-dione], the IC50 (Tables 5B-5E) worked out at 205 nM.
In the case of `O=C1NC2(CC(c3c(F)cccc3Cl)C2)C(=O)N1c1cncc2ccccc12` (single isomer, unassigned) [Compound 37, 2-(2-chloro-6-fluorophenyl)-7-(isoquinolin-4-yl)-5,7-diazaspiro[3.4]octane-6,8-dione], half-maximal inhibition (Tables 5B-5E) (IC50) required 64 nM.
Take `CC1(c2ccccc2)CC2(C1)NC(=O)N(c1cncc3ccccc13)C2=O` (single isomer, unassigned) [Compound 38, 7-(isoquinolin-4-yl)-2-methyl-2-phenyl-5,7-diazaspiro[3.4]octane-6,8-dione]: for the setting “Tables 5B-5E”, the IC50 stood at 71 nM.
Regarding `CC1(c2ccccc2)CC2(C1)NC(=O)N(c1cncc3ccccc13)C2=O` (single isomer, unassigned) [Compound 39, 7-(isoquinolin-4-yl)-2-methyl-2-phenyl-5,7-diazaspiro[3.4]octane-6,8-dione], 926 nM corresponded to half-maximal inhibition (Tables 5B-5E) (IC50).
With `O=C1NC2(CC(c3ccsc3Cl)C2)C(=O)N1c1cncc2ccccc12` (single isomer, unassigned) [Compound 40, 2-(2-chlorothiophen-3-yl)-7-(isoquinolin-4-yl)-5,7-diazaspiro[3.4]octane-6,8-dione], the IC50 (Tables 5B-5E) was determined as 304 nM.
On to `O=C1NC2(CC(c3ccsc3Cl)C2)C(=O)N1c1cncc2ccccc12` (single isomer, unassigned) [Compound 41, 2-(2-chlorothiophen-3-yl)-7-(isoquinolin-4-yl)-5,7-diazaspiro[3.4]octane-6,8-dione], for which half-maximal inhibition (Tables 5B-5E) (IC50) was put at 81 nM.
In the case of `O=C1NC2(CC(c3sccc3Cl)C2)C(=O)N1c1cncc2ccccc12` (single isomer, unassigned) [Compound 42, 2-(3-chlorothiophen-2-yl)-7-(isoquinolin-4-yl)-5,7-diazaspiro[3.4]octane-6,8-dione], it took 185 nM to reach half-maximal inhibition (Tables 5B-5E) (IC50).
`O=C1NC2(CC(c3sccc3Cl)C2)C(=O)N1c1cncc2ccccc12` (single isomer, unassigned) [Compound 43, 2-(3-chlorothiophen-2-yl)-7-(isoquinolin-4-yl)-5,7-diazaspiro[3.4]octane-6,8-dione] showed an IC50 (Tables 5B-5E) of 59 nM.
`O=C1NC2(CC(c3sccc3Br)C2)C(=O)N1c1cncc2ccccc12` (single isomer, unassigned) [Compound 44, 2-(3-bromothiophen-2-yl)-7-(isoquinolin-4-yl)-5,7-diazaspiro[3.4]octane-6,8-dione]: inhibition (Tables 5B-5E) was half-maximal at 81 nM (IC50).
On to `O=C1NC2(CC(c3sccc3Br)C2)C(=O)N1c1cncc2ccccc12` (single isomer, unassigned) [Compound 45, 2-(3-bromothiophen-2-yl)-7-(isoquinolin-4-yl)-5,7-diazaspiro[3.4]octane-6,8-dione], for which, under “Tables 5B-5E”, 57 nM corresponded to half-maximal inhibition (IC50).
Still for that read-out and setting: in the case of `CC1(c2ccc(F)cc2Cl)CC2(C1)NC(=O)N(c1cncc3ccccc13)C2=O` (single isomer, unassigned) [Compound 83, 2-(2-chloro-4-fluorophenyl)-7-(isoquinolin-4-yl)-2-methyl-5,7-diazaspiro[3.4]octane-6,8-dione] it was 241 nM.
Same read-out and setting: in the case of `CC1(c2ccc(F)cc2Cl)CC2(C1)NC(=O)N(c1cncc3ccccc13)C2=O` (single isomer, unassigned) [Compound 84, 2-(2-chloro-4-fluorophenyl)-7-(isoquinolin-4-yl)-2-methyl-5,7-diazaspiro[3.4]octane-6,8-dione] it was 806 nM.
For the compound `Cc1c(Br)cncc1N1C(=O)NC2(CC(C(C)(C)C)C2)C1=O` (stereo not shown) [Compound 5, 7-(5-bromo-4-methylpyridin-3-yl)-2-tert-butyl-5,7-diazaspiro[3.4]octane-6,8-dione], the IC50 (Table 5A) is 2700 nM.
The compound `Cc1c(Br)cncc1N1C(=O)NC2(CC(C3CCC3)C2)C1=O` (stereo not shown) [Compound 6, 7-(5-bromo-4-methylpyridin-3-yl)-2-cyclobutyl-5,7-diazaspiro[3.4]octane-6,8-dione] showed an IC50 (Table 5A) of 2000 nM.
`Cc1c(Br)cncc1N1C(=O)NC2(CC(c3ccccc3)C2)C1=O` (stereo not shown) [Compound 7, 7-(5-bromo-4-methylpyridin-3-yl)-2-phenyl-5,7-diazaspiro[3.4]octane-6,8-dione] showed an IC50 (Table 5A) of 2000 nM.
With `Cc1cccnc1CN1C(=O)NC2(CC(C(C)(C)C)C2)C1=O` (stereo not shown) [Compound 9, 2-tert-butyl-7-[(3-methylpyridin-2-yl)methyl]-5,7-diazaspiro[3.4]octane-6,8-dione], where the note is “Table 5A”, the half-inhibitory concentration (IC50) was > 10000 nM.
On the same count and under the same terms, the same measure for `Cc1ccncc1N1C(=O)NC2(CC(c3ccccc3)C2)C1=O` (stereo not shown) [Compound 11, 7-(4-methylpyridin-3-yl)-2-phenyl-5,7-diazaspiro[3.4]octane-6,8-dione]: 2300 nM.
Compound `CC(C)(C)C1CC2(C1)NC(=O)N(c1cncc(F)c1)C2=O` (stereo not shown) [Compound 12, 2-tert-butyl-7-(5-fluoropyridin-3-yl)-5,7-diazaspiro[3.4]octane-6,8-dione] came in with an IC50 (Table 5A) of 5500 nM.
On to `O=C1NC2(CC(C3CCC3)C2)C(=O)N1c1cncc(Br)c1` (stereo not shown) [Compound 14, 7-(5-bromopyridin-3-yl)-2-cyclobutyl-5,7-diazaspiro[3.4]octane-6,8-dione], for which half-maximal inhibition (Table 5A) (IC50) required 6000 nM.
With `O=C1NC2(CC(c3ccccc3F)C2)C(=O)N1c1cncc2ccccc12` (stereo not shown) [Compound 18, 2-(2-fluorophenyl)-7-(isoquinolin-4-yl)-5,7-diazaspiro[3.4]octane-6,8-dione], for the setting “Tables 5B-5E”, the IC50 turned out to be 335 nM.
Consider `O=C1NC2(CC(c3ccccc3F)C2)C(=O)N1c1cncc2ccccc12` (stereo not shown) [Compound 19, 2-(2-fluorophenyl)-7-(isoquinolin-4-yl)-5,7-diazaspiro[3.4]octane-6,8-dione], for which the IC50 (Tables 5B-5E) is 326 nM.
Under “Tables 5B-5E”, `COc1ccccc1C1CC2(C1)NC(=O)N(c1cncc3ccccc13)C2=O` (stereo not shown) [Compound 20, 7-(isoquinolin-4-yl)-2-(2-methoxyphenyl)-5,7-diazaspiro[3.4]octane-6,8-dione] came in with an IC50 of 477 nM.
As to `O=C1NC2(CC(c3ccccc3C(F)(F)F)C2)C(=O)N1c1cncc2ccccc12` (stereo not shown) [Compound 22, 7-(isoquinolin-4-yl)-2-(2-(trifluoromethyl)phenyl)-5,7-diazaspiro[3.4]octane-6,8-dione], where the note is “Tables 5B-5E”, half-maximal inhibition (IC50) required 197 nM.
As for `Cc1ccccc1C1CC2(C1)NC(=O)N(c1cncc3ccccc13)C2=O` (stereo not shown) [Compound 23, 7-(isoquinolin-4-yl)-2-(o-tolyl)-5,7-diazaspiro[3.4]octane-6,8-dione], the IC50 (Tables 5B-5E) is 925 nM.
Turning to `N#Cc1ccccc1C1CC2(C1)NC(=O)N(c1cncc3ccccc13)C2=O` (stereo not shown) [Compound 24, 2-(7-(isoquinolin-4-yl)-6,8-dioxo-5,7-diazaspiro[3.4]octan-2-yl)benzonitrile], for the setting “Tables 5B-5E”, the IC50 is 86 nM.
In the case of `O=C1NC2(CC(c3cccc(Cl)c3)C2)C(=O)N1c1cncc2ccccc12` (stereo not shown) [Compound 25, 2-(3-chlorophenyl)-7-(isoquinolin-4-yl)-5,7-diazaspiro[3.4]octane-6,8-dione], the IC50 (Tables 5B-5E) was determined as 931 nM.
With `O=C1NC2(CC(c3ccc(F)cc3)C2)C(=O)N1c1cncc2ccccc12` (stereo not shown) [Compound 27, 2-(4-fluorophenyl)-7-(isoquinolin-4-yl)-5,7-diazaspiro[3.4]octane-6,8-dione], the IC50 (Tables 5B-5E) was 441 nM.
For the setting “Tables 5B-5E”, `O=C1NC2(CC(c3ccc(F)cc3Cl)C2)C(=O)N1c1cncc2ccccc12` (stereo not shown) [Compound 32, 2-(2-chloro-4-fluorophenyl)-7-(isoquinolin-4-yl)-5,7-diazaspiro[3.4]octane-6,8-dione] displayed an IC50 of 95 nM.
In the case of `O=C1NC2(CC(c3ccc(F)cc3Cl)C2)C(=O)N1c1cncc2ccccc12` (stereo not shown) [Compound 33, 2-(2-chloro-4-fluorophenyl)-7-(isoquinolin-4-yl)-5,7-diazaspiro[3.4]octane-6,8-dione], where the note is “Tables 5B-5E”, it took 99 nM to reach half-maximal inhibition (IC50).
